Reference: paper PMC3302206 (Biochemistry, 2012)
Converted amounts (≈) assume the structure as drawn. Ends that are not written are not given here.

Columns and labels:
[1] = system: E. coli K12; assay type: cell-based, Escherichia coli; conditions: wild type strain; broth microdilution, measured as described (ref 18 protocol)
[2] = system: S. aureus mprF mutant; assay type: cell-based, Staphylococcus aureus; conditions: for MBC, S. aureus mprF mutant, −C: absence of carbonate; for MBC, S. aureus mprF mutant, +C: carbonate present
[3] = system: wild type S. aureus; assay type: cell-based, Staphylococcus aureus
[4] = system: wild type S. aureus Rosenbach strain; assay type: cell-based, Staphylococcus aureus; conditions: 16 h
[5] = system: E. coli DC2; assay type: cell-based, Escherichia coli; conditions: DC2, 16 h
[6] = system: S. aureus mprF mutant; assay type: cell-based, Staphylococcus aureus; conditions: for MIC, S. aureus mprF mutant, −C: absence of carbonate; for MIC, S. aureus mprF mutant, +C: physiological concentration of carbonate present
[7] = system: Staphylococcus aureus UAMS-1; assay type: cell-based; conditions: clinical isolate

| Compound | MIC, E. coli K12 [1] | MBC, S. aureus mprF mutant, −C [2] | MBC, S. aureus mprF mutant, +C [2] | MBC, WT S. aureus, +C [3] | MBC, WT S. aureus, −C [3] | MIC, WT S. aureus, +C [4] | MIC, WT S. aureus, −C [4] | MIC, E. coli DC2 [5] | MIC, S. aureus mprF mutant, −C [6] | MIC, S. aureus mprF mutant, +C [6] | MIC, Staphylococcus aureus UAMS-1 [7] |
| --- | --- | --- | --- | --- | --- | --- | --- | --- | --- | --- | --- |
| CC[C@H](C)[C@H](NC(=O)[C@H](CCCCN)NC(=O)[C@H](CCC(=O)O)NC(=O)[C@H](CCCCN)NC(=O)[C@H](CO)NC(=O)[C@H](CCCCN)NC(=O)[C@H](CCCNC(=N)N)NC(=O)[C@H](Cc1ccccc1)NC(=O)[C@H](Cc1ccccc1)NC(=O)[C@H](CC(=O)O)NC(=O)CNC(=O)[C@H](CC(C)C)NC(=O)[C@@H](N)CC(C)C)C(=O)NCC(=O)N[C@@H](CCCCN)C(=O)N[C@@H](CCC(=O)O)C(=O)N[C@@H](Cc1ccccc1)C(=O)N[C@@H](CCCCN)C(=O)N[C@@H](CCCNC(=N)N)C(=O)N[C@H](C(=O)N[C@H](C(=O)N[C@@H](CCC(N)=O)C(=O)N[C@@H](CCCNC(=N)N)C(=O)N[C@H](C(=O)N[C@@H](CCCCN)C(=O)N[C@@H](CC(=O)O)C(=O)N[C@@H](Cc1ccccc1)C(=O)N[C@@H](CC(C)C)C(=O)N[C@@H](CCCNC(=N)N)C(=O)N[C@@H](CC(N)=O)C(=O)N[C@@H](CC(C)C)C(=O)N[C@H](C(=O)N1CCC[C@H]1C(=O)N[C@@H](CCCNC(=N)N)C(=O)N[C@H](C(=O)N[C@@H](CCC(=O)O)C(=O)N[C@@H](CO)C(=O)O)[C@@H](C)O)C(C)C)[C@@H](C)CC)C(C)C)[C@@H](C)CC [LL-37] | 5 µM (≈ 22.5 µg/mL) | – | – | – | – | – | – | – | – | – | – |
| LLGDFFRKAKEKIGKEFKRIVQR [LL-23A9] | – | 6 to 12 µM | 6 µM | >24 µM | >24 µM | >24 µM | >24 µM | 9 µM | 6 µM | 0.35 to 0.7 µM | – |
| LLGDFFRKVKEKIGKEFKRIVQR [LL-23V9] | – | 3 to 6 µM | 6 to 12 µM | >24 µM | >24 µM | 12 µM | >24 µM | 2 µM | 6 µM | 0.35 to 0.7 µM | – |
| CC[C@H](C)[C@H](NC(=O)[C@H](CCCCN)NC(=O)[C@H](CCC(=O)O)NC(=O)[C@H](CCCCN)NC(=O)[C@@H](NC(=O)[C@H](CCCCN)NC(=O)[C@H](CCCNC(=N)N)NC(=O)[C@H](Cc1ccccc1)NC(=O)[C@H](Cc1ccccc1)NC(=O)[C@H](CC(=O)O)NC(=O)CNC(=O)[C@H](CC(C)C)NC(=O)[C@@H](N)CC(C)C)C(C)C)C(=O)NCC(=O)N[C@@H](CCCCN)C(=O)N[C@@H](CCC(=O)O)C(=O)N[C@@H](Cc1ccccc1)C(=O)N[C@@H](CCCCN)C(=O)N[C@@H](CCCNC(=N)N)C(=O)N[C@H](C(=O)N[C@H](C(=O)N[C@@H](CCC(N)=O)C(=O)N[C@@H](CCCNC(=N)N)C(=O)N[C@H](C(=O)N[C@@H](CCCCN)C(=O)N[C@@H](CC(=O)O)C(=O)N[C@@H](Cc1ccccc1)C(=O)N[C@@H](CC(C)C)C(=O)N[C@@H](CCCNC(=N)N)C(=O)N[C@@H](CC(N)=O)C(=O)N[C@@H](CC(C)C)C(=O)N[C@H](C(=O)N1CCC[C@H]1C(=O)N[C@@H](CCCNC(=N)N)C(=O)N[C@H](C(=O)N[C@@H](CCC(=O)O)C(=O)N[C@@H](CO)C(=O)O)[C@@H](C)O)C(C)C)[C@@H](C)CC)C(C)C)[C@@H](C)CC [LL-37V9] | – | – | – | – | – | – | – | 12 µM (≈ 54.1 µg/mL) | – | – | – |
| LLGDFFRKSKEKIGKEFKRIVQR [LL-23] | – | >24 µM | 12 µM | >24 µM | >24 µM | >24 µM | >24 µM | 9 µM | 24 µM | 3 µM | > 160 µM |
| CC[C@H](C)[C@H](NC(=O)[C@H](CCCCN)NC(=O)[C@H](CCC(=O)O)NC(=O)[C@H](CCCCN)NC(=O)[C@H](C)NC(=O)[C@H](CCCCN)NC(=O)[C@H](CCCNC(=N)N)NC(=O)[C@H](Cc1ccccc1)NC(=O)[C@H](Cc1ccccc1)NC(=O)[C@H](CC(=O)O)NC(=O)CNC(=O)[C@H](CC(C)C)NC(=O)[C@@H](N)CC(C)C)C(=O)NCC(=O)N[C@@H](CCCCN)C(=O)N[C@@H](CCC(=O)O)C(=O)N[C@@H](Cc1ccccc1)C(=O)N[C@@H](CCCCN)C(=O)N[C@@H](CCCNC(=N)N)C(=O)N[C@H](C(=O)N[C@H](C(=O)N[C@@H](CCC(N)=O)C(=O)N[C@@H](CCCNC(=N)N)C(=O)N[C@H](C(=O)N[C@@H](CCCCN)C(=O)N[C@@H](CC(=O)O)C(=O)N[C@@H](Cc1ccccc1)C(=O)N[C@@H](CC(C)C)C(=O)N[C@@H](CCCNC(=N)N)C(=O)N[C@@H](CC(N)=O)C(=O)N[C@@H](CC(C)C)C(=O)N[C@H](C(=O)N1CCC[C@H]1C(=O)N[C@@H](CCCNC(=N)N)C(=O)N[C@H](C(=O)N[C@@H](CCC(=O)O)C(=O)N[C@@H](CO)C(=O)O)[C@@H](C)O)C(C)C)[C@@H](C)CC)C(C)C)[C@@H](C)CC [LL-37A9] | – | – | – | – | – | – | – | 6 µM (≈ 26.9 µg/mL) | – | – | – |
